# According to US9926293B2, “Multivalent RAS binding compounds” (THE TRUSTEES OF COLUMBIA UNIVERSITY IN THE CITY OF NEW YORK, priority 2014, dated 2018):
# Assays:
# GTP-loaded KRAS G12D = molecular target: T1, GTP-loaded KRAS G12D (Homo sapiens, UniProt P01116, G12D); test: Microscale thermophoresis, GTP-loaded KRAS G12D labeled with NT-647-maleimide; format: binding; settings: read-out: dissociation constant KD
# T1 construct: made in house; host or cells: Escherichia coli BL21-Gold (DE3)
# Protocol: Microscale Thermophoresis
# KRAS^G12D (250 μM) in 25 mM HEPES, 100 mM sodium chloride, 2 mM TCEP with 20 mM EDTA and 1 mM GppNHp was shaken at 220 rpm at 30° C. to remove the endogenous nucleotide, The solution was placed on ice for 2 minutes prior to the addition of 65 mM MgCl2. […] The protein/dye mixture was rotated at 4° C. for 30 minutes, before being separated from the excess dye and buffer exchanged into 25 mM Tris, 100 mM sodium chloride, 2 mM TCEP, and 5 mM MgCl2 via a nap-5 column. The test compounds were arrayed across a 16-point dilution series consisting of 1.5% DMSO with 25 mM Tris, 100 mM NaCl, 2 mM TCEP, 5 mM MgCl2 and 0.05% tween-20. Thermophoretic movement of the fluorescently labeled protein with the inhibitors was performed using a Monolith NT.115 (Nanotemper Technologies). RALA and RHOA were purchased commercially from Abcam (RALA CN:ab102555, RHOA CN:ab101594).
# (§1) A set of 45 of the closest matches (ranging from 0.85-0.97 Tanimoto coefficient) were synthesized (based on Scheme 2 with appropriate modifications) and tested for their ability to bind to KRAS^G12D by differential scanning fluorimetry.
# KRAS^G12D D38A = molecular target: T2, KRAS^G12D D38A (Homo sapiens, UniProt P01116, D38A/G12D); test: Microscale thermophoresis on binding-site mutant KRAS^G12D D38A
# T2 construct: His6 (N); made in house
# Protocol: (§2) Mutagenesis of the KRAS^G12D plasmid was performed using a QuikChange XL site-directed mutagenesis kit from Agilent technologies, according to the manufacturer's protocol. Primers were designed using the Agilent QuikChange Primer Design application and purchased from Integrated DNA Technologies. KRAS^G12D D38A forward primer 5′ ATATGATCCAACAATAGAGGCTTCCTACAGGAAGCAAGTAG 3′ (SEQ ID NO: 66), KRAS^G12D D38A reverse primer 5′ CTACTTGCTTCCTGTAGGAAGCCTCTATTGTTGGATCATAT 3′ (SEQ ID NO: 67), KRAS^G12D I36N forward primer 5′ CATTTTGTGGACGAATATGATCCAACAAATGAGGATTCCTACAGG 3′ (SEQ ID NO: 68), KRAS^G12D I36N reverse primer 5′ CCTGTAGGAATCCTCATTTGTTGGATCATATTCGTCCACAAAATG 3′ (SEQ ID NO: 69). DNA sequencing was performed to confirm the correct amino acid sequence of the construct (GeneWiz, Inc.).
# (§3) KRAS^G12D (250 μM) in 25 mM HEPES, 100 mM sodium chloride, 2 mM TCEP with 20 mM EDTA and 1 mM GppNHp was shaken at 220 rpm at 30° C. to remove the endogenous nucleotide, The solution was placed on ice for 2 minutes prior to the addition of 65 mM MgCl2. After an additional 10 minutes incubation on ice, 200 uL of a 10 uM solution of KRAS^G12D was combined with 200 uL of a 20 uM solution of NT-647-NHS-ester dye (from a 652.4 μM stock). The protein/dye mixture was rotated at 4° C. for 30 minutes, before being separated from the excess dye and buffer exchanged into 25 mM Tris, 100 mM sodium chloride, 2 mM TCEP, and 5 mM MgCl2 via a nap-5 column. The test compounds were arrayed across a 16-point dilution series consisting of 1.5% DMSO with 25 mM Tris, 100 mM NaCl, 2 mM TCEP, 5 mM MgCl2 and 0.05% tween-20. Thermophoretic movement of the fluorescently labeled protein with the inhibitors was performed using a Monolith NT.115 (Nanotemper Technologies). RALA and RHOA were purchased commercially from Abcam (RALA CN:ab102555, RHOA CN:ab101594).
# as §1
# KRAS^G12D I36N = molecular target: T3, KRAS^G12D I36N (Homo sapiens, UniProt P01116, G12D/I36N); test: Microscale thermophoresis on binding-site mutant KRAS^G12D I36N; settings: MST, 31MEW79 experiment of b434
# T3 construct: His6 (N); made in house
# Protocol: as §2
# as §3, with “CN:ab101594). […]” for “CN:ab101594).”
# GppNHp-bound KRAS^G12D = molecular target: T4, GppNHp-bound KRAS^G12D (Homo sapiens, UniProt P01116, G12D); test: Binding to KRAS and measurement of dissociation constants (FIG. 4B-4C), GppNHp-bound; settings: read-out: dissociation constant KD
# T4 construct: made in house; host or cells: Escherichia coli BL21-Gold (DE3)
# GDP-bound KRAS^G12D = molecular target: T5, GDP-bound KRAS^G12D (Homo sapiens, UniProt P01116, G12D); test: Binding to KRAS and measurement of dissociation constants (FIG. 4B-4C), GDP-bound; settings: read-out: dissociation constant KD
# T5 construct: made in house; host or cells: Escherichia coli BL21-Gold (DE3)
# KRAS^G12D⋅BODIPY-GTP = molecular target: T6, KRAS^G12D⋅BODIPY-GTP (Homo sapiens, UniProt P01116, G12D); test: Nucleotide displacement assay with BODIPY-GTP (fluorescence polarization); format: binding; settings: 2.5 μM KRAS^G12D⋅BODIPY-GTP, 12 hours
# T6 construct: made in house; host or cells: Escherichia coli BL21-Gold (DE3)
# Protocol: Nucleotide Displacement Assay
# To investigate whether compounds were binding to the same site as GTP, a fluorescent polarization assay was implemented using fluorescently-labeled BODIPY-GTP as a probe. When BODIPY-GTP is free in solution, it has a low polarization. However, when BODIPY-GTP is bound to K-Ras protein, the polarization intensity is high. K-Ras G12D bound to BODIPY-GTP was incubated with different concentrations of ligand or unlabeled GTP or GDP in buffer containing 25 mM Tris-HCl, pH 8, 100 mM NaCl, 5 mM MgCl2, 1 mM EDTA, and 1 mM TCEP. The final concentration of K-Ras G12D bound to BODIPY-GTP in each well was 2.5 μM. The samples were incubated at 25° C. for 12 hours with gentle shaking to allow for the slow intrinsic nucleotide release reaction to take place. The change in fluorescence was measured on a Victor3 plate reader (Perkin Elmer) in 384-well black low-volume plates (Corning, Inc.). The BODIPY-GTP fluorophore was excited at 485 nm and emission was monitored at 535 nm.
# [1] = molecular target: T7, GTP-loaded KRAS^G12D / CRAF RBD interaction (Homo sapiens, UniProt P01116, G12D); test: In vitro RAS pulldown with CRAF RBD; format: biochemical; settings: in vitro pull-down
# T7 construct: made in house; host or cells: Escherichia coli BL21-Gold (DE3)
# Protocol: A 20 μM solution of KRAS^G12D in 50 mM HEPES, 200 mM sodium chloride, 2 mM TCEP with 1 mM EDTA and 1 mM GTP was gently rotated at 25° C. to remove the endogenous nucleotide. Magnesium chloride was then added to 5 mM and the resulting solution was rotated at 4° C. for 4 hours. The GTP-loaded KRAS^G12D was then diluted to 20 nM and incubated with the inhibitors and 5 μL of CRAF-RBD agarose beads (Millipore), 10 μL of RAF1-RBD agarose beads (EMD Millipore, CN: 14-278), or 100 nM RALGDS (Abcam, CN: ab132590) with 20 μL of glutathione beads for 2 hours. The beads were separated from the lysate via a 0.1 μm filter spin cup and centrifuging at 14,000-15,000 rpm. They were then washed twice with PBS before the addition of 1×SDS. The quantity of RAS in the samples was then analyzed using the previously described Western blotting procedure.
# as §1
smiles,measurement,setting,value
"NCCC[C@@H](NC(=O)CN1CCCNCC1)C(=O)NC1Cc2ccccc2C1 [Compound 31MEW79, (R)-2-(2-(1,4-diazepan-1-yl)ethanamido)-5-amino-N-(2,3-dihydro-1H-inden-2-yl)pentanamide]",Kd,GTP-loaded KRAS G12D,33 µM
same,loss in affinity,KRAS^G12D D38A; KRAS^G12D D38A and I36N vs KRAS^G12D,1.5 to 3.0 fold
same,Kd,"KRAS^G12D D38A; MST, 31MEW79 experiment of b434",83 µM
same,Kd,KRAS^G12D I36N,47 µM
same,Kd,GppNHp-bound KRAS^G12D,3800 µM
same,Kd,GDP-bound KRAS^G12D,7100 µM
same,displacement of BODIPY-GTP,KRAS^G12D⋅BODIPY-GTP,No displacement
same,CRAF-bound KRAS^G12D,[1],dose-dependent decrease
